Measurements taken from patent publication US8618178B2, “Method and substances for treating T-cell mediated autoimmune diseases” (Eberhard-Karls-Universitaet Tuebingen Universitaetsklinikum, priority 2006, dated 2013).
Entries after “also recorded” stand apart in the source; their conditions may differ. Structures can show the parent of a compound that is named as a salt.

Legend:
DC = experiment: Colorimetric determination of cellular GSH content of DC; format: cell-based, mouse; conditions: L-BSO 0.5 mM, DMF 70 μM, MMF 200 μM
Procedure: Cellular GSH and GSSG were determined in micro-titer plate assays using colorimetric methods. The cellular GHS content is determined as a percentage of the GSH levels in freshly prepared controls or as pmol 10^−6 cells. GSSG was not detectable.
As antigen presenting cells (APC), T cell depleted spleen cells from syngenic mice were used. Dendritic cells (DC) which were obtained from bone marrow (BMDC) and cultured with GM-CSF were used for the relevant experiments on day 7 of culturing. For the experiment, in each case an equal number of APC were cultured either with the medium alone, with L-BSO (C8H18N2O3S, 0.5 mM), dimethyl sulfoxide DMSO(C2H6OS), dimethyl fumarate DMF (C6H8O4, dissolved in DMSO, 70 μM), or calcium monomethyl fumarate (MMF; CaC10H10O8, 200 μM). All substances except for MMF (Fumapharm) were purchased from Sigma-Aldrich. At the respective stated times (see below) the cells were either analyzed directly for their GSH content, used for T cell stimulation or stimulated for […] with Escherichia coli lipopolysaccharides 055.B5 (Sigma-Aldrich) or CpG-DNA 1668 (MWG Biotech) and IL-4 (Stratmann). […]
For the testing of the potential of pharmaceutical substances to lower the glutathione content of cells, the following procedure was carried out: cells (antigen-presenting cells or dendritic cells) are incubated with different concentrations of the given pharmaceutical substance to be tested. Then, after an incubation time of 1 hr, 2 hrs, 24 hrs or 48 hrs, the glutathione content of the cells is determined in comparison to control cells. […]
The samples and the GSH standard were diluted in a microtiter plate and the assay reaction started by addition of a reaction mix which contains glutathione reductase. […] The rise in the extinction is measured at 405 nm at 30 sec intervals over 10 mins with a microtiter plate reader. The glutathione content was determined using a calibration curve. […] The protein content was determined by the method of Lowry (see for example, Dringen, et al., “Supply by Astrocytes of CysGly as Precursor for neuronal Glutathione”, J. Neurosci 19:562-569). […]

BMDC = experiment: Measurement of reactive oxygen species (ROS) in DC with dichlorofluorescein, flow cytometry; format: cell-based, mouse; conditions: dichlorofluorescein, flow cytometry
Procedure: For the measurement of reactive oxygen species (ROS) in DC and APC, the fluorescent dye 2′,7′ dichlorofluorescein (H2 DCFDA, Molecular Probes, Eugene, USA) was used. 5×10^5 DC were preincubated in 1 ml of RPMI medium (without mercaptoethanol) for 60 mins at 37° C. in the incubator with 1% DMSO or 10 μg/ml DMF+/−NAC (1 mM) or GSX (1 mM). After this preincubation, 1 μM/ml H2 DCFDA was added and the cells incubated for a further 30 mins at 37° C. Within one hour, the fluorescence produced was detected using flow cytometry (FL1).
As antigen presenting cells (APC), T cell depleted spleen cells from syngenic mice were used. Dendritic cells (DC) which were obtained from bone marrow (BMDC) and cultured with GM-CSF were used for the relevant experiments on day 7 of culturing. For the experiment, in each case an equal number of APC were cultured either with the medium alone, with L-BSO (C8H18N2O3S, 0.5 mM), dimethyl sulfoxide DMSO(C2H6OS), dimethyl fumarate DMF (C6H8O4, dissolved in DMSO, 70 μM), or calcium monomethyl fumarate (MMF; CaC10H10O8, 200 μM). All substances except for MMF (Fumapharm) were purchased from Sigma-Aldrich. At the respective stated times (see below) the cells were either analyzed directly for their GSH content, used for T cell stimulation or stimulated for […] with Escherichia coli lipopolysaccharides 055.B5 (Sigma-Aldrich) or CpG-DNA 1668 (MWG Biotech) and IL-4 (Stratmann). In order to raise the GSH level again, 1 mM GSH-OEt (C12H21N3O6S; Sigma-Aldrich) or 1 mM NAC (Sigma-Aldrich) was added.
For testing the potential of pharmaceutical substances to induce the ROS, the following procedure was developed: for the measurement of reactive oxygen species (ROS) in cells, the fluorescent dye 2′,7′ dichlorofluorescein (H2 DCFDA) is used. The absorption spectrum of the substance is 492-495 nm and the emission spectrum lies in the range between 517-527 nm. On induction of cell stress, e.g., by the administration of ROS-causing reagents, oxidation of the H2 DCFDA to DCFDA+H2 occurs. The fluorescence arising as a result can be detected using flow cytometry (FL1).

| Structure (SMILES) | intracellular GSH content of DC (DC) | intracellular ROS in DC (BMDC) |
| --- | --- | --- |
| COC(=O)/C=C/C(=O)OC [DMF, dimethyl fumarate] | depletes the intracellular glutathione level; also recorded: marked decrease | rise in ROS |
| CCCCS(=N)(=O)CCC(N)C(=O)O [L-BSO, L-buthionine sulfoximine] | depletes the intracellular glutathione level; also recorded: marked decrease | rise in intracellular ROS |
| COC(=O)/C=C/C(=O)[O-].[Ca+] [MMF, calcium monomethyl fumarate] | depletes the intracellular glutathione level; also recorded: marked decrease | induces ROS |
